ChEMBL document CHEMBL5375949, “The evolution of small molecule enzyme activators” (RSC Med Chem, 2023)

Columns and labels:
[1] = target: Angiotensin-converting enzyme 2 (Homo sapiens, UniProt Q9BYF1); assay: Activation of recombinant human ACE2 using McaAPK(Dnp)-OH as substrate preincubated for 15 mins followed by substrate addition spectra max Gemini M5 fluorescence plate reader analysis
[2] = target: Insulin-degrading enzyme (Homo sapiens) (UniProt P14735); assay: Activation of IDE (unknown origin) using FRET1 as substrate at 200 uM by SpectraMax M5 multilabel plate reader analysis relative to control; settings: filed as activator
Insulin-degrading enzyme (Homo sapiens), sequence (P14735 whole entry): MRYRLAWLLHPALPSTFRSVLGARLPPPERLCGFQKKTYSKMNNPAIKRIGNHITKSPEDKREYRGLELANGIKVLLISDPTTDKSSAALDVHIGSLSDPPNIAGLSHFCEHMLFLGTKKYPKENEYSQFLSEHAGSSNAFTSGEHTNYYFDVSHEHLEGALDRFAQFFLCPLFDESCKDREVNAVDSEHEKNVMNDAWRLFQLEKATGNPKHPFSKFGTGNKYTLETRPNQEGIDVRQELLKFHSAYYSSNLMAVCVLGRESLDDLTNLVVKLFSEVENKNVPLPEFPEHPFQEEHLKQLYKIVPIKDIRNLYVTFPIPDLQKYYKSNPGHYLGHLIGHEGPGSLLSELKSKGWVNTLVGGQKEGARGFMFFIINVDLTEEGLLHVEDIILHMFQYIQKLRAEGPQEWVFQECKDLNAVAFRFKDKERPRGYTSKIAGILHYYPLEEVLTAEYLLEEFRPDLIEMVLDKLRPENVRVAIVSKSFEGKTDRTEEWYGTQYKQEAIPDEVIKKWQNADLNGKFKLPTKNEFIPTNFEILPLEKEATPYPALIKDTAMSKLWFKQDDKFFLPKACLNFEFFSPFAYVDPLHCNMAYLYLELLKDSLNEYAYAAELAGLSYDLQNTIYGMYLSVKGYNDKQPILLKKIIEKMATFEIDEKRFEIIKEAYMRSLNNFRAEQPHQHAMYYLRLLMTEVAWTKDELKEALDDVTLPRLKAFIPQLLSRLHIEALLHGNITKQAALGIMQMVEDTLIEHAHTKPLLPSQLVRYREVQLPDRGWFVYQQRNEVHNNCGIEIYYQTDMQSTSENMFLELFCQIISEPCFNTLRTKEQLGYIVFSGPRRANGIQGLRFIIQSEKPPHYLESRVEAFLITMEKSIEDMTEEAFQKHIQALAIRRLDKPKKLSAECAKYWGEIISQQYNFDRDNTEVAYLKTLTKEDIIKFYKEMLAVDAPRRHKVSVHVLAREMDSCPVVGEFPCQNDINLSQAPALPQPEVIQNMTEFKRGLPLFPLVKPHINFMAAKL

[3] = target: Insulin-degrading enzyme (Homo sapiens) (UniProt P14735); assay: Activation of IDE (unknown origin) using SP1 as substrate in presence of ATP by SpectraMax M5 multilabel plate reader analysis relative to control; settings: filed as activator
N-glycosylase/DNA lyase = N-glycosylase/DNA lyase (Homo sapiens, UniProt O15527); assay: Activation of OGG1 (unknown origin) by fluorescence-based assay
N-glycosylase/DNA lyase, sequence (O15527 whole entry): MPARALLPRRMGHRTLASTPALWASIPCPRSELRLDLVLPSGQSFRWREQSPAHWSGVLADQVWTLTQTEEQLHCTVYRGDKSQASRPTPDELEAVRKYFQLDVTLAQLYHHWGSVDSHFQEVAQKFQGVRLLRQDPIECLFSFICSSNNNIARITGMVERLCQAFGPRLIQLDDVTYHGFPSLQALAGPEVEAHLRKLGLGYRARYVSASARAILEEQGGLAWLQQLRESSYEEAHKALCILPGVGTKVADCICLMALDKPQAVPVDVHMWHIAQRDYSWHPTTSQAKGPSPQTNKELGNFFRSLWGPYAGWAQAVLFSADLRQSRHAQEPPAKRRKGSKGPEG

A549 = assay: Anti-oxidative activity in human A549 cells assessed as reduction in cell injury relative to control; assay type: functional; set-up: scale not given: the % may be the effect or the level left
SUM-159-PT = assay: cells; settings: Homo sapiens, 72 h
Description: Antiproliferative activity against human SUM159 cells assessed as inhibition of cell growth incubated for 72 hrs by Hoechst stain-based assay

MDA-MB-231 [4] = assay: cells; settings: Homo sapiens, MDA-MB-231, 72 h
Description: Antiproliferative activity against human MDA-MB-231 cells assessed as inhibition of cell growth incubated for 72 hrs by Hoechst stain-based assay

[5] = Protection against rotenone-induced stress in human Induced pluripotent stem cell-derived neuron cells relative to control; assay type: functional
[6] = Activation of sGC (unknown origin); set-up: species or system Homo sapiens
[7] = target: Indoleamine 2,3-dioxygenase 1 (Mus musculus, UniProt P28776); assay: Positive allosteric modulation of recombinant mouse IDOL transfected in mouse P1.HTR cells assessed as increase in Kyn production incubated for 24 hrs; assay type: cell-based
Indoleamine 2,3-dioxygenase 1 (Mus musculus, UniProt P28776), sequence (P28776 whole entry): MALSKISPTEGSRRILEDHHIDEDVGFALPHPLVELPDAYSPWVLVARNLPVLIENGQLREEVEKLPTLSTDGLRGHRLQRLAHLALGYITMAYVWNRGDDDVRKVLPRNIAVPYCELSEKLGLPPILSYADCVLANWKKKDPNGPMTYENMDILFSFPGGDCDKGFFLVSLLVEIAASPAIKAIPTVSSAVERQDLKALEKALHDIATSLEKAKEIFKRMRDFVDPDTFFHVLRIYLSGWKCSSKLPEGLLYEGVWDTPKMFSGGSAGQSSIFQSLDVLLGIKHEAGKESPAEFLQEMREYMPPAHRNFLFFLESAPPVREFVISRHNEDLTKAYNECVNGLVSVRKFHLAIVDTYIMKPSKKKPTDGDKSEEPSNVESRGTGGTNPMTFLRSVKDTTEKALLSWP

[8] = target: Indoleamine 2,3-dioxygenase 1 (Homo sapiens, UniProt P14902); assay: Positive allosteric modulation of recombinant human IDOL transfected in mouse P1.HTR cells assessed as increase in Kyn production incubated for 24 hrs; assay type: cell-based
Indoleamine 2,3-dioxygenase 1 (Homo sapiens, UniProt P14902), sequence (P14902 whole entry): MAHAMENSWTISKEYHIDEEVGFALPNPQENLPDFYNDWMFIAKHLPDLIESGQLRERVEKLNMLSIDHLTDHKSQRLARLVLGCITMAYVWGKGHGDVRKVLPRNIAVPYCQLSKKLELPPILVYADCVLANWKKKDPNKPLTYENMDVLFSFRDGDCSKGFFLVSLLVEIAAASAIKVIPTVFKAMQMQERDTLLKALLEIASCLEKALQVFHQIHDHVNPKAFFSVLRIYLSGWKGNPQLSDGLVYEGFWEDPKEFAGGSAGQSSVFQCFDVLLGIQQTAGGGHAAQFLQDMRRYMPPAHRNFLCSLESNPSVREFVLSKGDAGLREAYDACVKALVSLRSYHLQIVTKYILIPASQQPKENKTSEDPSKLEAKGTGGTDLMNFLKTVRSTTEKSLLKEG

MDA-MB-231 [9] = assay: Cytotoxicity against human MDA-MB-231 cells assessed as inhibition of cell growth incubated for 24 hrs by MTS assay; assay type: functional, cell-based; settings: MDA-MB-231, 24 h
BT-474 = assay: Cytotoxicity against human BT-474 cells assessed as inhibition of cell growth incubated for 24 hrs by MTS assay; assay type: functional, cell-based; settings: BT-474, 24 h
[10] = Activation of procaspase-3 (unknown origin); set-up: species or system Homo sapiens
[11] = target: T1, Glucose-6-phosphate 1-dehydrogenase (Homo sapiens, UniProt P11413); assay: Activation of G6PD (unknown origin) expressed in Escherichia coli C43(DE3) cells using G6P as substrate in presence of NADP+ by resazurin dye-based assay
T1 sequence (P11413 whole entry): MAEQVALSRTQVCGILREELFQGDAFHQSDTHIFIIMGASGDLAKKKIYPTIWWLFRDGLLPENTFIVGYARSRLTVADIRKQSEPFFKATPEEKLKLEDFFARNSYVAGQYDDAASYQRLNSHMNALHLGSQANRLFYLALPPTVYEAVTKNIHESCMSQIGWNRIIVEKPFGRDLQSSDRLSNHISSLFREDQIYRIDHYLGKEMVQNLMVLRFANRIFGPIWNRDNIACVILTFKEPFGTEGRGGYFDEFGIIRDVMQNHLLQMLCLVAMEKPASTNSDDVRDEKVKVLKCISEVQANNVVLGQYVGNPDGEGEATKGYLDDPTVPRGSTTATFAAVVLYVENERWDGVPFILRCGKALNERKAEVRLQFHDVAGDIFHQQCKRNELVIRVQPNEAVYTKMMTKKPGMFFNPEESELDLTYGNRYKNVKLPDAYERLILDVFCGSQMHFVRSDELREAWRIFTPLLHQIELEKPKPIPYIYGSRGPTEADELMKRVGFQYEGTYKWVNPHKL

[12] = target: T1, Glucose-6-phosphate 1-dehydrogenase; assay: Activation of G6PD dimerization in lymphocytes isolated from G6PD-deficient patient carrying canton variant expressed in Escherichia coli C43(DE3) cells using G6P as substrate assessed as increase in lysate activity in presence of NADP+ by resazurin dye based fluorescence assay relative to control; assay type: subcellular; settings: Lymphocyte, filed as activator
[13] = Activation of recombinant human procaspase-3 using Ac-DEVD-pNA as substrate preincubated for 12 hrs followed by substrate addition by absorbance based assay
NCI-H3255 = assay: Cytotoxicity against TKI-sensitive LUAD immortalized human NCI-H3255 cells assessed as inhibition of cell growth incubated for 48 hrs by Beckman Coulter cell counter analysis; assay type: functional, cell-based; settings: NCI-H3255, 48 h
HCC827 = assay: Cytotoxicity against TKI-sensitive LUAD immortalized human HCC827 cells assessed as inhibition of cell growth incubated for 48 hrs by Beckman Coulter cell counter analysis; assay type: functional, cell-based; settings: HCC827, 48 h
NCI-H1975 [14] = assay: Cytotoxicity against d TKI-resistant LUAD human NCI-H1975 cells assessed as inhibition of cell growth incubated for 48 hrs by Beckman Coulter cell counter analysis; assay type: functional, cell-based; settings: NCI-H1975, 48 h
NCI-H1650 = assay: Cytotoxicity against d TKI-resistant LUAD human NCI-H1650 cells assessed as inhibition of cell growth incubated for 48 hrs by Beckman Coulter cell counter analysis; assay type: functional, cell-based; settings: NCI-H1650, 48 h
NCI-H1975 [15] = assay: Antitumor activity against human NCI-H1975 cells xenografted in mouse model assessed as fold decrease in tumor growth; assay type: functional
[16] = target: T2, Carnitine O-palmitoyltransferase 1, liver isoform (Homo sapiens) (UniProt P50416); assay: Activation of CPT-1 in human HeLa cells assessed as fold increase at 100 uM incubated for 10 mins relative to control; assay type: cell-based; settings: filed as activator
T2 sequence (whole entry): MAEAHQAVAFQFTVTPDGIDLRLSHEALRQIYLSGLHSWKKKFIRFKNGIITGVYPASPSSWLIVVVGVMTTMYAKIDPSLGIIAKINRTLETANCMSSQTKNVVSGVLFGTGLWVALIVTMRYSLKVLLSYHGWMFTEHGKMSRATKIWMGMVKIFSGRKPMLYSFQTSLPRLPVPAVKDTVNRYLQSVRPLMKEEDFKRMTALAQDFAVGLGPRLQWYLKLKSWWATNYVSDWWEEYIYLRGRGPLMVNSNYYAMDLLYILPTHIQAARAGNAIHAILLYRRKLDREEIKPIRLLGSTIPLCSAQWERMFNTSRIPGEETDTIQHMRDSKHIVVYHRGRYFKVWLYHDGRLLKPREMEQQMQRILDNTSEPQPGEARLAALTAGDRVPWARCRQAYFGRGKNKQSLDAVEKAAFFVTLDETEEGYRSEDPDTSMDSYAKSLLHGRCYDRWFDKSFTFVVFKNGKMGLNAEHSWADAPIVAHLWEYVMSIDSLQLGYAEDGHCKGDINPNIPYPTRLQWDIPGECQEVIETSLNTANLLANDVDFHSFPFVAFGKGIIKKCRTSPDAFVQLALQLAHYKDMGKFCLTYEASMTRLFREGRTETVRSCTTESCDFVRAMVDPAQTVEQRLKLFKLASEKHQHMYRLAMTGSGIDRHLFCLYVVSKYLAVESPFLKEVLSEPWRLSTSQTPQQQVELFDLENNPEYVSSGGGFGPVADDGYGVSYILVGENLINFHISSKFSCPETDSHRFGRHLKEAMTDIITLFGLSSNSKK

Mus musculus [17] = assay: Anti-obesity activity against diet-induced obese mouse expressing CPT-1 H327E mutant assessed as reduction in body weight at 400 mg/kg, IG administered for 12 week; assay type: functional; settings: time 12 weeks
Mus musculus [18] = assay: Anti-obesity activity against diet-induced obese mouse expressing CPT-1 H327E mutant assessed as reduction in body fat percentage at 400 mg/kg, IG administered for 12 week relative to control; assay type: functional; set-up: scale not given: the % may be the effect or the level left; settings: time 12 weeks
[19] = target: T2, Carnitine O-palmitoyltransferase 1, liver isoform (Homo sapiens); assay: Activation of CPT-1 in human HeLa cells assessed as reduction in free fatty acid at 100 uM incubated for 10 mins relative to control; assay type: cell-based; set-up: scale not given: the % may be the effect or the level left; settings: filed as activator
[20] = target: 3',5'-cyclic-AMP phosphodiesterase 4D (Homo sapiens, UniProt Q08499); assay: Activation of PDE4D5 (unknown origin)
3',5'-cyclic-AMP phosphodiesterase 4D, sequence (Q08499 whole entry): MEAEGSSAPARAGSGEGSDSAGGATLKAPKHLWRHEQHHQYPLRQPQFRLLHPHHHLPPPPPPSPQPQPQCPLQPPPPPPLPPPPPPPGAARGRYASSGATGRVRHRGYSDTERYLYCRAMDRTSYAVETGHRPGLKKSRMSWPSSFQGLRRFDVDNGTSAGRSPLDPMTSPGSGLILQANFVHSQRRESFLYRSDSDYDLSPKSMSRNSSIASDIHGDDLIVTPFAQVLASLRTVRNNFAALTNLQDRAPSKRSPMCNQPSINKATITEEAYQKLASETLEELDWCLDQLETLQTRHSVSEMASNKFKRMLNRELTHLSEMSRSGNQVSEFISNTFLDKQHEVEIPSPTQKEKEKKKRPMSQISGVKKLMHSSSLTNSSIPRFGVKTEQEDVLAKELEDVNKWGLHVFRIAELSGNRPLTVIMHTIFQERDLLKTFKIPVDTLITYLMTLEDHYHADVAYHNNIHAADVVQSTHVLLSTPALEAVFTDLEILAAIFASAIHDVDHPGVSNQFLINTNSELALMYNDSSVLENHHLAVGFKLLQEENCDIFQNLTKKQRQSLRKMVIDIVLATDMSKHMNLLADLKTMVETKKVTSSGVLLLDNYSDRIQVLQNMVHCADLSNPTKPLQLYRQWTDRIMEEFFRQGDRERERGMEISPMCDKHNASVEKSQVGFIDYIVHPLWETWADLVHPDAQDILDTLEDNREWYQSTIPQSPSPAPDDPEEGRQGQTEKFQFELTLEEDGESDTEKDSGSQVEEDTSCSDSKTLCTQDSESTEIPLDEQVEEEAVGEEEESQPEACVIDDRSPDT

Homo sapiens = species: Homo sapiens; assay: Activation of recombinant sGC (unknown origin) assessed as fold increase
[21] = target: Insulin-degrading enzyme (Homo sapiens) (UniProt P14735); assay: Activation of IDE (unknown origin) using FRET1 as substrate at 6.25 uM by SpectraMax M5 multilabel plate reader analysis relative to control; settings: filed as activator

Angiotensin-converting enzyme 2, sequence (Q9BYF1 whole entry): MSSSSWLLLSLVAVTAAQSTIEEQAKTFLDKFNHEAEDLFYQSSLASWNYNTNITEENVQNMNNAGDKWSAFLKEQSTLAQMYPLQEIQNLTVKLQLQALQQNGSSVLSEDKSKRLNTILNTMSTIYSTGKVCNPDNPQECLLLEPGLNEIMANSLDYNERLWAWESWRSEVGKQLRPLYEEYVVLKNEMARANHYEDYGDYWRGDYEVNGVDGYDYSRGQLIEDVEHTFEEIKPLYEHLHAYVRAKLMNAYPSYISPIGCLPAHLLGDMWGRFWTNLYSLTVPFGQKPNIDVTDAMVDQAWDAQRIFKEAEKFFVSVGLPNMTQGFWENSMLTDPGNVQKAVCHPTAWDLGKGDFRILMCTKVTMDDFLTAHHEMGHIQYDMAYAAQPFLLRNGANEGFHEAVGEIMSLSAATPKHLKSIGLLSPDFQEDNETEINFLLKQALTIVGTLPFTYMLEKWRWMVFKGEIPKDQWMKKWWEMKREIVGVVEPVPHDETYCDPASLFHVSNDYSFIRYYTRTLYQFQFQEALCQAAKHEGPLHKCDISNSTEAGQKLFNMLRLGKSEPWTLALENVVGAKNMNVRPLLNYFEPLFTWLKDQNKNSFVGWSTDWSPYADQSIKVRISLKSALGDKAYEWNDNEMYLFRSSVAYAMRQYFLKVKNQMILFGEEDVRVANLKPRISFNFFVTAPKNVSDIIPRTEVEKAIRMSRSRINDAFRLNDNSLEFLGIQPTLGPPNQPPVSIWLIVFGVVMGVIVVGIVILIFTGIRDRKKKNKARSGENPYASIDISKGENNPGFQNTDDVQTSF

With `O=C1OC2(c3ccc(O)cc3Oc3cc(O)ccc32)c2ccccc21` [FLUORESCEIN] as the compound, how does the EC50 [1] read?
The EC50 was 19.5 µM.

What does the source list for `O=C1CC(c2ccc(Cl)cc2)CC(=O)C1/C=N/OCc1nnsc1Cl` (stereo unspecified)?
Activity [2]: 500%; Activity [3]: 1000%

Which results are given for `CNc1nnc(C)c2c1cc(-c1ccc(F)cc1)n2C`?
EC50 (N-glycosylase/DNA lyase): 5.1 µM; Activity (A549): 200%

What does the source list for `N#Cc1cccc(CN2CCc3ncn(Cc4ccc(Cl)cc4)c(=O)c3C2)c1`?
IC50 (SUM-159-PT): 0.012 µM; IC50 (MDA-MB-231 [4]): 0.003 µM

For `c1ccc2c(NC3CCCCC3)nc(C3CC3)nc2c1`, which EC50 (N-glycosylase/DNA lyase) is on record?
The EC50 was 0.78 µM.

For `O=C(c1cc(O)c(O)c(O)c1)c1ccc(O)c(O)c1O` [EXIFONE], which Activity [5] is on record?
Its Activity is 80%.

Which EC50 [6] does the source give for `O=C(Nc1ccc(S(=O)(=O)N2CCOCC2)cc1)c1cc(Cl)ccc1NS(=O)(=O)c1ccc(Cl)s1` here?
The EC50 was 0.5 µM.

With `CC(=O)NCCc1c[nH]c2ccc(O)cc12` [ACETYLSEROTONIN] as the compound, how does the EC50 [7] read?
Its EC50 is 19.6 µM.

And the EC50 [8]?
The EC50 was 20.9 µM.

For `CCCCCCCCc1ccc(CCC(N)(CO)CO)cc1` [FINGOLIMOD], which IC50 (MDA-MB-231 [9]) is on record?
Its IC50 is 2.9 µM.

And the IC50 (BT-474)?
The IC50 was 8.5 µM.

For `O=C(Nc1cccc(-c2cn3ccccc3n2)c1)c1cc2cccc(O)c2oc1=O`, which EC50 [10] is on record?
The EC50 was 1.3 µM.

With `Fc1ccccc1Cc1nc(-c2nc(C(F)(F)F)n[nH]2)cn2ccnc12` [ZAGOCIGUAT] as the compound, how does the EC50 [6] read?
The EC50 was 0.066 µM.

Which results are given for `c1ccc2c(CCNCCSSCCNCCc3c[nH]c4ccccc34)c[nH]c2c1`?
EC50 [11]: 0.8 µM; Activity [12]: 78%

Which EC50 [1] does the source give for `N=C(N)c1ccc(/N=N/Nc2ccc(C(=N)N)cc2)cc1` [DIMINAZENE] here?
Its EC50 is 8.04 µM.

For `Cc1cc(N[C@@H](C)C(=O)Nc2ccccc2)nc(Nc2ccccc2)n1`, which EC50 (N-glycosylase/DNA lyase) is on record?
The EC50 was 4.1 µM.

For `O=C(CN1CCN(Cc2nc(-c3ccc(COc4ccc(F)cc4)cc3)no2)CC1)N/N=C/c1ccc(OCc2csc(Cc3ccc4c(c3)OCO4)n2)cc1O`, which EC50 [13] is on record?
The EC50 was 0.95 µM.

With `O=S(=O)(N[C@@H]1CCCC(N2c3ccccc3Oc3ccccc32)[C@H]1O)c1ccc(OC(F)(F)F)cc1` (stereo partly specified) as the compound, how does the IC50 (NCI-H3255) read?
The IC50 was 12.4 µM.

And the IC50 (HCC827)?
The IC50 was 14.3 µM.

What about the IC50 (NCI-H1975 [14]) of the same compound?
Its IC50 is 10.6 µM.

What about the IC50 (NCI-H1650) of the same compound?
Its IC50 is 10.6 µM.

What about the “fold change (FC)” value (NCI-H1975 [15]) of the same compound?
Its value is 2.

With `O=C(O)[C@H]1O[C@@H](Oc2cc3oc(-c4ccccc4)cc(=O)c3c(O)c2O)[C@H](O)[C@@H](O)[C@@H]1O` [BAICALIN] as the compound, how does the fold change (FC) [16] read?
Its fold change (FC) is 7.

And the Activity (Mus musculus [17])?
The Activity was -12.5 g.

And the Activity (Mus musculus [18])?
The Activity was -0.085%.

What about the Activity [19] of the same compound?
Its Activity is 50%.

For `Cc1cnc(N2CCN3CCCC3C2)nc1Oc1ccc(-n2ccnc2)cc1` (stereo unspecified), which EC50 (N-glycosylase/DNA lyase) is on record?
Its EC50 is 4.6 µM.

For `CCc1nc(-c2ccc(Cl)c(F)c2)nn1CC(=O)NCc1cc(Cl)cc(Cl)c1`, which EC50 [20] is on record?
The EC50 was 1.2 µM.

For `COC(=O)N(C)c1c(N)nc(-c2nn(Cc3ccccc3F)c3ncccc23)nc1N`, which fold change (FC) (Homo sapiens) is on record?
The fold change (FC) was less than 73.

Which EC50 (N-glycosylase/DNA lyase) does the source give for `OC(Cn1ccnc1)(c1ccc(Cl)cc1Cl)C1CCCCC1` (stereo unspecified) here?
The EC50 was 5 µM.

And the Activity (A549)?
The Activity was 650%.

For `O=C(Nc1cccc(Cl)c1)N1CCC(c2cc(-c3ccco3)[nH]n2)CC1`, which Activity [21] is on record?
Its Activity is 60%.
